Reference: patent US7517909B2, “Amino acids with affinity for the α2δ-protein” (Pfizer Inc, priority 2002, dated 2009)
Counter-ions that a name gives are not always drawn.

Biological target: T1, α2δ-subunit of a calcium channel (Sus scrofa, UniProt A0A287BIN3)
T1 construct: the α2δ-subunit derived from porcine brain tissue was used; from tissue; host or cells: porcine brain tissue
Experiment: radioligand binding assay using [3H]-gabapentin
Settings: α2δ-subunit derived from porcine brain tissue
Text: The ability of compounds of the present invention to bind to the α2δ-subunit of a calcium channel can be determined using the following binding assay.
The radioligand binding assay using [^3H]-gabapentin and the α2δ-subunit derived from porcine brain tissue was used (See, Gee, Nicolas S et at “The novel anticonvulsant drug, gabapentin (Neurontin), binds to the α2δ subunit of a calcium channel”. J. Biol. Chem. (1996), 271(10), 5768-76). Compounds of the invention bind with nanomolar to micromolar affinity for the α2δ protein.

T1 sequence (A0A287BIN3 25-1109): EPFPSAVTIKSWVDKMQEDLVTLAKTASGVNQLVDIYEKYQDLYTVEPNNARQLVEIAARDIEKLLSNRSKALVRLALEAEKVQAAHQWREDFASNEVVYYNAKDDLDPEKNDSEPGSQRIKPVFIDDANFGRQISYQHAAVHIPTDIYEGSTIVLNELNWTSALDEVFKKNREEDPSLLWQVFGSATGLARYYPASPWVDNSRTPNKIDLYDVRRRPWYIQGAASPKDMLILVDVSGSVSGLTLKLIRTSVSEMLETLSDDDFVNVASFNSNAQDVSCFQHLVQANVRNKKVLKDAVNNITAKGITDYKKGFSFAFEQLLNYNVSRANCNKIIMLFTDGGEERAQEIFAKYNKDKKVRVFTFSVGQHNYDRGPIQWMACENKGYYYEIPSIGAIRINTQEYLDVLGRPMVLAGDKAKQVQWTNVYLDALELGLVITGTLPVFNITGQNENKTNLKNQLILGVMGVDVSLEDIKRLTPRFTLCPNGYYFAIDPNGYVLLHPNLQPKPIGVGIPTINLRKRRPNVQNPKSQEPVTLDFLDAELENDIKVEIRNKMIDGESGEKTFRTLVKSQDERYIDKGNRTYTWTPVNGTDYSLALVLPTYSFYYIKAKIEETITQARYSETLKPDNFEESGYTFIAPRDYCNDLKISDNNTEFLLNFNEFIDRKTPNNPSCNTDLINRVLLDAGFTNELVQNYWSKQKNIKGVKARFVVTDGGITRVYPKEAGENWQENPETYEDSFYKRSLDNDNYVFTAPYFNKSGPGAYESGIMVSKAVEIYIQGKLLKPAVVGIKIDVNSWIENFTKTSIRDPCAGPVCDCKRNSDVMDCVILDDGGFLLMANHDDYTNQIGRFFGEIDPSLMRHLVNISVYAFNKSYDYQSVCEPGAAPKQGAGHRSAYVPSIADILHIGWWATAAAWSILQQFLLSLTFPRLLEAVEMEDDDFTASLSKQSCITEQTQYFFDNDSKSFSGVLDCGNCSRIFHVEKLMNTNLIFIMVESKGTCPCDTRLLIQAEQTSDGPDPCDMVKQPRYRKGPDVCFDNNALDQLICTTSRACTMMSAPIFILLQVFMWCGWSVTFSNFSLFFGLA

SMILES | affinity to the α2δ protein [nM]
CCCC(C)(C)CC(CN)C(=O)O.Cl (stereo not drawn) [2-Aminomethyl-4,4-dimethyl-heptanoic acid hydrochloride] | 83
CCC[C@@H](C)C[C@H](CN)C(=O)O [(2R,4R)-2-Aminomethyl-4-methyl-heptanoic acid] | 29
CCC[C@H](C)C[C@H](N)CC(=O)O [(3S,5S)-3-amino-5-methyl-octanoic acid] | 1000
CC(C)CCCC(C)C[C@@H](N)CC(=O)O (stereo partly drawn) [R-3-amino-5,9-dimethyl-decanoic acid] | 527

Tested on: not given
Experiment: not given
Settings: not given

SMILES | melting point [°C]
CCC[C@@H](C)C[C@H](N)CC(=O)O.Cl | 142.5 to 142.7
CCC[C@@H](C)C[C@H](CN)C(=O)O (as salt: hydrochloride) [(2R,4R)-2-Aminomethyl-4-methyl-heptanoic acid] | 226.3 to 228
CCCC(C)(C)CC(CN)C(=O)O.Cl (stereo not drawn) [2-Aminomethyl-4,4-dimethyl-heptanoic acid hydrochloride] | 229.5 to 231

The remaining lines, values ahead:

melting point [°C] | SMILES
142.5 to 143.3 | CCCC[C@@H](C)C[C@H](N)CC(=O)O (as salt: hydrochloride)
194.2 to 195.2 | CCCC(C)(C)C[C@H](N)CC(=O)O (as salt: hydrochloride)
